The values that follow come from ChEMBL document CHEMBL1208782, “Synthesis and pharmacological validation of a novel series of non-steroidal FXR agonists” (Bioorg Med Chem Lett, 2010).

Common to all, as to type: functional, cell-based
The target of test [1] is T1, Bile acid receptor (Homo sapiens, UniProt Q96RI1).
T1 sequence (Q96RI1 whole entry): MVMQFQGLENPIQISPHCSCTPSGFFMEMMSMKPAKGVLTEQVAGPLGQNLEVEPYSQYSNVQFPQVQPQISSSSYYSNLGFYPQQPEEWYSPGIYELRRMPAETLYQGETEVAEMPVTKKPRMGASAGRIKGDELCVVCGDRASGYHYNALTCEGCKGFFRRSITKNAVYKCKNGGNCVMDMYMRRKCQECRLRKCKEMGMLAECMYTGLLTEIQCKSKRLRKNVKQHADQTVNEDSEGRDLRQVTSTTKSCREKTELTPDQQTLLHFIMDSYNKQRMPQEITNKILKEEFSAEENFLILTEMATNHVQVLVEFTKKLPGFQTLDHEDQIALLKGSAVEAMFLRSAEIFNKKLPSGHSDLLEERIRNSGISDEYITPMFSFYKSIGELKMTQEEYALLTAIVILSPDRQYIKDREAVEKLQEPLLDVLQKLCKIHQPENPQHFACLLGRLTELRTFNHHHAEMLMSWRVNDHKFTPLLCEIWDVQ
The experiment in a line: Agonist activity at human […] FXR LBD expressed in HEK293 cells coexpressing GAL4-DNA bindig domain and pFRluc by mammalian one-hybrid assay. Conditions: read-out: EC50.

The target in test [2] is T2, Bile acid receptor (Homo sapiens) (UniProt Q96RI1).
T2 sequence (whole entry): T1 sequence (Q96RI1 whole entry)
The experiment in a line: Agonist activity at human […] FXR LBD expressed in HEK293 cells coexpressing GAL4-DNA bindig domain and pFRluc by mammalian one-hybrid assay relative to GW-4064.

For test [3], the target named is T3, Progesterone receptor (Homo sapiens, UniProt P06401).
T3 sequence (P06401 whole entry): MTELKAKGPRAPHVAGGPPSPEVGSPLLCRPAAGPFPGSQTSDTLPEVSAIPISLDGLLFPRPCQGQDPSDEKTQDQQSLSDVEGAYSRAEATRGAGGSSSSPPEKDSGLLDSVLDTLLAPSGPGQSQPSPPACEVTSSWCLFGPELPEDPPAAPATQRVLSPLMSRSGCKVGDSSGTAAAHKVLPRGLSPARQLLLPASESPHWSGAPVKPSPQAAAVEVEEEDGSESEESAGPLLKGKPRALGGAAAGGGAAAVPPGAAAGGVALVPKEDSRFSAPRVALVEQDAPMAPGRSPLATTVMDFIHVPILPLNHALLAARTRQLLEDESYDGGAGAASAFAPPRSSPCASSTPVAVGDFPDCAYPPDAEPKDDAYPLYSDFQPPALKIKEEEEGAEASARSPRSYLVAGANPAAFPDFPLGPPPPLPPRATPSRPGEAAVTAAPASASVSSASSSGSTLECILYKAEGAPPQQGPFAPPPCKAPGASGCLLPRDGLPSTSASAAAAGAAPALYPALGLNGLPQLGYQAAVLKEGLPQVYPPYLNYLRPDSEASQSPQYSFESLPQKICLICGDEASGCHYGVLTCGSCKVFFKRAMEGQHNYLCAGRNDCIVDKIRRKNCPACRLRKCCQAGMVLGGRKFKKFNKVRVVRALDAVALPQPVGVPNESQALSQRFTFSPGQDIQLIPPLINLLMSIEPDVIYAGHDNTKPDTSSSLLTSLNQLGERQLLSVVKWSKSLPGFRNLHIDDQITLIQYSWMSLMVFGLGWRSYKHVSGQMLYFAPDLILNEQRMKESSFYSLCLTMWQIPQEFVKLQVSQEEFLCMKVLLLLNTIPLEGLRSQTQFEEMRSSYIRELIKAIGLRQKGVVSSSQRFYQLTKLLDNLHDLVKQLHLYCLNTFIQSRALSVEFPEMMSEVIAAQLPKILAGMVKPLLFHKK
Nature of the test: Agonist activity at progesterone receptor-LBD expressed in HEK293 cells assessed as Gal4-DBD interaction by cellular mammalian one hybrid assay.

For test [4], the target named is T4, Peroxisome proliferator-activated receptor alpha (Homo sapiens) (UniProt Q07869).
T4 sequence (whole entry): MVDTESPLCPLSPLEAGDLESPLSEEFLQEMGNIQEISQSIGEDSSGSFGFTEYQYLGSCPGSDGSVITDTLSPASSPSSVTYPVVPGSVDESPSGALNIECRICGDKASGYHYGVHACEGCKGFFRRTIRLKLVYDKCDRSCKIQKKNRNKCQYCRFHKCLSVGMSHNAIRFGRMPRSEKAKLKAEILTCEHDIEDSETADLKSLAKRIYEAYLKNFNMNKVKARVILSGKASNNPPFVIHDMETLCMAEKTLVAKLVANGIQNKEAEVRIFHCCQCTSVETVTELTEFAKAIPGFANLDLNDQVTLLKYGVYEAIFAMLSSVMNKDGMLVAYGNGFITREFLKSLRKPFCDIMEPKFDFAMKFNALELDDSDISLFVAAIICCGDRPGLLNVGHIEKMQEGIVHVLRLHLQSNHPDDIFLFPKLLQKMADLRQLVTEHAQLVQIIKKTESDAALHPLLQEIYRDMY
Nature of the test: Agonist activity at PPARalpha-LBD expressed in HEK293 cells assessed as Gal4-DBD interaction by cellular mammalian one hybrid assay relative to GW-7467.

The target in test [5] is T5, Retinoic acid receptor gamma (Homo sapiens) (UniProt P13631).
T5 sequence (whole entry): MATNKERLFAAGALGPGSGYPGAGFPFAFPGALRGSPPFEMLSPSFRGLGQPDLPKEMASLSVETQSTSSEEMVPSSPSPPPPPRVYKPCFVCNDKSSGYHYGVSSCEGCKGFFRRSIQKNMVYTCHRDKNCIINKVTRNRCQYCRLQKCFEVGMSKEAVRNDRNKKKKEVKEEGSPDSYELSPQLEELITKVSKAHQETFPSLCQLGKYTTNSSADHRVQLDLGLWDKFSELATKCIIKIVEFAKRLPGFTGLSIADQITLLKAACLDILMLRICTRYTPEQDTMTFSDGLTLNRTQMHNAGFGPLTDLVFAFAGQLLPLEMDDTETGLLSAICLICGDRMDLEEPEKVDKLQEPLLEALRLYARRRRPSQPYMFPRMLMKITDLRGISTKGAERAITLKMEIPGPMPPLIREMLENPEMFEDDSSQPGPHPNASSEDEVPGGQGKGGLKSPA
Nature of the test: Agonist activity at RARgamma-LBD expressed in HEK293 cells assessed as Gal4-DBD interaction by cellular mammalian one hybrid assay relative to relative to retinoic acid.

Molecules are shown by their SMILES.

Regarding `CN(Cc1ccc(C(=O)O)cc1)c1ccc(OCc2c(-c3c(Cl)cccc3Cl)noc2C2CC2)nc1C(F)(F)F`, the half-maximal effective concentration (EC50) is 30 nM in test [1] and greater than 10000 nM in test [3]. The Efficacy in test [2] worked out at 81%; in test [4], 0%; in test [5], 0%.

With `CN(Cc1cccc(C(=O)O)c1)c1ccc(OCc2c(-c3c(Cl)cccc3Cl)noc2C2CC2)nc1C(F)(F)F`, the results for the concentration giving a half-maximal response (EC50) in test [1] and in test [3] were 9 nM and greater than 10000 nM, respectively. For the same molecule, the values for the Efficacy in test [2], in test [4] and in test [5] were 79%, 15% and 0%, respectively.

Consider `CC(C)c1onc(-c2c(Cl)cccc2Cl)c1COc1ccc(N(C)Cc2ccc(C(=O)O)cc2)c(C(F)(F)F)n1`, for which the concentration for a half-maximal effect (EC50) was 90 nM in test [1] and greater than 10000 nM in test [3]. Besides, the Efficacy turned out to be 75% in test [2], 0% in test [4] and 0% in test [5].
